Test results taken from patent US9957287B2, “Methods and compositions to treat type-1 and type-2 diabetes” (CORNELL UNIVERSITY, priority 2016, dated 2018).

System: β cells of DKO mice fed a HFD
Test: MEK162 treatment in vivo of TLR2/TLR4 DKO mice on HFD, histological analysis
Parameters: species or system mouse
Description: For S961 studies, 45-week-old mice under a LFD or HFD were anesthetized and subcutaneously implanted with osmotic pumps (ALZET) filled with insulin receptor antagonist S961 4 or vehicle PBS. Mice were infused with S961 at the dose of 10 nmoles/week for 2 weeks, followed by euthanization and histological analysis of islets. For MEK162 studies, TLR2/TLR4 DKO mice on HFD for 8 weeks were orally gavaged with MEK162 (20 mg/kg body weight, LC laboratories) or vehicle, twice daily for 2 days, followed by euthanization and histological analysis.
For quantification of β cell area, six independent pancreatic tissue sections from 3-4 mice were randomly selected. Total insulin-positive and total pancreas area was measured using the Aperio Imagescope and ImageJ, from which percentage of insulin-positive area was calculated. For quantitation of β cell proliferation, cytoplasmic insulin and nuclear Ki67 double-positive cells were counted as proliferating β cells. Percent of proliferating cells were calculated by dividing the number of Ki67 and insulin-double positive cells by insulin-positive cells of each islet. Islets from 3-4 mice in each group with ˜200-400 β cells in LFD and ˜2,000-7,300 β cells in HFD cohorts were analyzed using the ImageJ software.
Pancreas was fixed in 4% paraformaldehyde, embedded in paraffin, and sectioned by Cornell Histology Core Facility. Ten-micrometer-thick paraffin sections were stained with hematoxylin/eosin. For staining of insulin with immunofluorescence, paraffinembedded sections were rehydrated by sequentially washing in xylene, 100%, 95%, 75% ethanol and water. Then slides were boiled in […] for antigen exposure. After blocking using 5% donkey serum, primary guinea pig anti-rat insulin antibody (Linco, 1:200) were applied and incubated overnight at 4° C., followed with washes and incubation with FITC-conjugated donkey anti-guinea pig IgG (Jackson ImmunoResearch, 1:200). […] Fluorescence Images were captured under a Zeiss LSM710 confocal microscope at Cornell Biotechnology Resource Center Imaging Facility. […]

[1] = DKO mice on HFD for 8 weeks, MEK162 oral 20 mg/kg twice daily for the last 2 days

Question: What does the source list for `Cn1cnc2c(F)c(Nc3ccc(Br)cc3F)c(C(=O)NOCCO)cc21` [MEK162]?
Answer: ERK activation (DKO mice fed a HFD, MEK162 oral 20 mg/kg twice daily for 2 days): blocked; nuclear entry of Cyclin D2 [1]: abolished; β cell proliferation (Ki67-positive β cells) [1]: abolished
